Reference: US12497365B2, “4-pyridinyl formamide compound or derivative thereof, preparation method therefor, herbicidal composition and use thereof” (Qingdao Kingagroot Chemical Compound Co., Ltd., priority 2019, dated 2025)

System: Amaranthus retroflexus L.
Assay: Weeding effect in post-emergence stage
Type: in vivo
Conditions: active ingredient 2000 g/ha, 3 weeks after application, fresh weight control rate
Outline: (§1)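 Pot-grown weeds at the 2-3 leaf stage receive a tower spray of test compound at 2000, 1000, 500, 250 or 125 g/ha, formulated in acetone with Tween 80 and methyl oleate synergist. Fresh weight reduction is rated on an activity scale 3 weeks later.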

| SMILES | Weeding effect, activity level (growth control rate), Amaranthus retroflexus L. |
| --- | --- |
| Cn1nnnc1NC(=O)c1ccnc(-c2ccc(CNC(=O)OC(C)(C)C)s2)c1Cl [Compound 1-2004] | 5 (Level 5: growth control rate is above 85%) |
| CC(C)c1c(C(=O)Nc2nnnn2C)ccnc1-c1ccc(F)cc1 [Compound 1-197] | 5 (Level 5: growth control rate is above 85%) |
| Cn1nnnc1NC(=O)c1ccnc(-c2ccc[nH]2)c1Cl [Compound 1-2006] | 5 (Level 5: growth control rate is above 85%) |
| C=CC(=O)Nc1cccc(-c2nccc(C(=O)Nc3nnnn3C)c2Cl)c1 [Compound 1-48] | 5 (Level 5: growth control rate is above 85%) |
| Cn1nnnc1NC(=O)c1ccnc(-c2ccc(Br)nc2F)c1Cl [Compound 1-140] | 5 (Level 5: growth control rate is above 85%) |
| Cn1nnnc1NC(=O)c1ccnc(-c2cc(Cl)cc(Cl)c2)c1Cl [Compound 1-89] | 5 (Level 5: growth control rate is above 85%) |
| CC(C)Sc1ccc(-c2nccc(C(=O)Nc3nnnn3C)c2Cl)cc1 [Compound 1-43] | 5 (Level 5: growth control rate is above 85%) |
| Cn1nnnc1NC(=O)c1ccnc(-c2ccc(C#N)nc2)c1Cl [Compound 1-134] | 5 (Level 5: growth control rate is above 85%) |
| Cn1nnnc1NC(=O)c1ccnc(-c2ccc(Cl)nc2Cl)c1Cl [Compound 1-139] | 5 (Level 5: growth control rate is above 85%) |
| Cn1nnnc1NC(=O)c1ccnc(-c2ccc(Cl)nc2)c1Cl [Compound 1-129] | 5 (Level 5: growth control rate is above 85%) |
| Cc1nc(F)ccc1-c1nccc(C(=O)Nc2nnnn2C)c1Cl [Compound 1-137] | 5 (Level 5: growth control rate is above 85%) |
| Cn1nnnc1NC(=O)c1ccnc(-c2cccc(Cl)c2Cl)c1Cl [Compound 1-87] | 5 (Level 5: growth control rate is above 85%) |
| Cn1nnnc1NC(=O)c1ccnc(C2=CCOCC2)c1Cl [Compound 1-7] | 5 (Level 5: growth control rate is above 85%) |
| Cn1nnnc1NC(=O)c1ccnc(-c2ccc(F)cc2)c1-c1ccc(F)cc1 [Compound 1-223] | 5 (Level 5: growth control rate is above 85%) |
| Cn1nnnc1NC(=O)c1ccnc(-c2ccc3c(c2)oc2ccccc23)c1Cl [Compound 1-117] | 5 (Level 5: growth control rate is above 85%) |
| Cn1nnnc1NC(=O)c1ccnc(-c2ccc(F)cc2C#N)c1Cl [Compound 1-83] | 5 (Level 5: growth control rate is above 85%) |
| Cn1nnnc1NC(=O)c1ccnc(-c2ccc(Cl)cc2F)c1Cl [Compound 1-95] | 5 (Level 5: growth control rate is above 85%) |
| Cn1nnnc1NC(=O)c1ccnc(-c2ccccc2Oc2ccccc2)c1Cl [Compound 1-57] | 5 (Level 5: growth control rate is above 85%) |
| COCc1c(C(=O)Nc2nnnn2C)ccnc1-c1ccc(F)cc1 [Compound 1-214] | 5 (Level 5: growth control rate is above 85%) |
| Cn1nnnc1NC(=O)c1ccnc(-c2cnc(F)nc2)c1Cl [Compound 1-158] | 5 (Level 5: growth control rate is above 85%) |
| CSc1nccc(C(=O)Nc2nnnn2C)c1Cl [Compound 1-2065] | 5 (Level 5: growth control rate is above 85%) |
| Cn1nnnc1NC(=O)c1ccnc(Oc2ccccc2)c1Cl [Compound 1-2063] | 5 (Level 5: growth control rate is above 85%) |

System: Abutilon theophrasti
Assay: Weeding effect in post-emergence stage
Type: in vivo
Conditions: active ingredient 2000 g/ha, 3 weeks after application, fresh weight control rate
Outline: as §1

| SMILES | Weeding effect, activity level (growth control rate), Abutilon theophrasti |
| --- | --- |
| Cn1nnnc1NC(=O)c1ccnc(-c2ccc(CNC(=O)OC(C)(C)C)s2)c1Cl [Compound 1-2004] | 5 (Level 5: growth control rate is above 85%) |
| CC(C)c1c(C(=O)Nc2nnnn2C)ccnc1-c1ccc(F)cc1 [Compound 1-197] | 5 (Level 5: growth control rate is above 85%) |
| Cn1nnnc1NC(=O)c1ccnc(-c2ccc[nH]2)c1Cl [Compound 1-2006] | 5 (Level 5: growth control rate is above 85%) |
| C=CC(=O)Nc1cccc(-c2nccc(C(=O)Nc3nnnn3C)c2Cl)c1 [Compound 1-48] | 5 (Level 5: growth control rate is above 85%) |
| Cn1nnnc1NC(=O)c1ccnc(-c2ccc(Br)nc2F)c1Cl [Compound 1-140] | 5 (Level 5: growth control rate is above 85%) |
| Cn1nnnc1NC(=O)c1ccnc(-c2cc(Cl)cc(Cl)c2)c1Cl [Compound 1-89] | 5 (Level 5: growth control rate is above 85%) |
| CC(C)Sc1ccc(-c2nccc(C(=O)Nc3nnnn3C)c2Cl)cc1 [Compound 1-43] | 5 (Level 5: growth control rate is above 85%) |
| Cn1nnnc1NC(=O)c1ccnc(-c2ccc(C#N)nc2)c1Cl [Compound 1-134] | 5 (Level 5: growth control rate is above 85%) |
| Cn1nnnc1NC(=O)c1ccnc(-c2ccc(Cl)nc2Cl)c1Cl [Compound 1-139] | 5 (Level 5: growth control rate is above 85%) |
| Cn1nnnc1NC(=O)c1ccnc(-c2ccc(Cl)nc2)c1Cl [Compound 1-129] | 5 (Level 5: growth control rate is above 85%) |
| Cc1nc(F)ccc1-c1nccc(C(=O)Nc2nnnn2C)c1Cl [Compound 1-137] | 5 (Level 5: growth control rate is above 85%) |
| Cn1nnnc1NC(=O)c1ccnc(-c2cccc(Cl)c2Cl)c1Cl [Compound 1-87] | 5 (Level 5: growth control rate is above 85%) |
| Cn1nnnc1NC(=O)c1ccnc(C2=CCOCC2)c1Cl [Compound 1-7] | 5 (Level 5: growth control rate is above 85%) |
| Cn1nnnc1NC(=O)c1ccnc(-c2ccc(F)cc2)c1-c1ccc(F)cc1 [Compound 1-223] | 5 (Level 5: growth control rate is above 85%) |
| Cn1nnnc1NC(=O)c1ccnc(-c2ccc3c(c2)oc2ccccc23)c1Cl [Compound 1-117] | 5 (Level 5: growth control rate is above 85%) |
| Cn1nnnc1NC(=O)c1ccnc(-c2ccc(F)cc2C#N)c1Cl [Compound 1-83] | 5 (Level 5: growth control rate is above 85%) |
| Cn1nnnc1NC(=O)c1ccnc(-c2ccc(Cl)cc2F)c1Cl [Compound 1-95] | 5 (Level 5: growth control rate is above 85%) |
| Cn1nnnc1NC(=O)c1ccnc(-c2ccccc2Oc2ccccc2)c1Cl [Compound 1-57] | 5 (Level 5: growth control rate is above 85%) |
| COCc1c(C(=O)Nc2nnnn2C)ccnc1-c1ccc(F)cc1 [Compound 1-214] | 5 (Level 5: growth control rate is above 85%) |
| Cn1nnnc1NC(=O)c1ccnc(-c2cnc(F)nc2)c1Cl [Compound 1-158] | 5 (Level 5: growth control rate is above 85%) |
| CSc1nccc(C(=O)Nc2nnnn2C)c1Cl [Compound 1-2065] | 5 (Level 5: growth control rate is above 85%) |
| Cn1nnnc1NC(=O)c1ccnc(Oc2ccccc2)c1Cl [Compound 1-2063] | 5 (Level 5: growth control rate is above 85%) |

System: Chenopodium album
Assay: Weeding effect in post-emergence stage
Type: in vivo
Conditions: active ingredient 2000 g/ha, 3 weeks after application, fresh weight control rate
Outline: as §1

| SMILES | Weeding effect, activity level (growth control rate), Chenopodium album |
| --- | --- |
| Cn1nnnc1NC(=O)c1ccnc(-c2ccc(CNC(=O)OC(C)(C)C)s2)c1Cl [Compound 1-2004] | 5 (Level 5: growth control rate is above 85%) |
| CC(C)c1c(C(=O)Nc2nnnn2C)ccnc1-c1ccc(F)cc1 [Compound 1-197] | 5 (Level 5: growth control rate is above 85%) |
| Cn1nnnc1NC(=O)c1ccnc(-c2ccc[nH]2)c1Cl [Compound 1-2006] | 5 (Level 5: growth control rate is above 85%) |
| C=CC(=O)Nc1cccc(-c2nccc(C(=O)Nc3nnnn3C)c2Cl)c1 [Compound 1-48] | 5 (Level 5: growth control rate is above 85%) |
| Cn1nnnc1NC(=O)c1ccnc(-c2ccc(Br)nc2F)c1Cl [Compound 1-140] | 5 (Level 5: growth control rate is above 85%) |
| Cn1nnnc1NC(=O)c1ccnc(-c2cc(Cl)cc(Cl)c2)c1Cl [Compound 1-89] | 5 (Level 5: growth control rate is above 85%) |
| CC(C)Sc1ccc(-c2nccc(C(=O)Nc3nnnn3C)c2Cl)cc1 [Compound 1-43] | 5 (Level 5: growth control rate is above 85%) |
| Cn1nnnc1NC(=O)c1ccnc(-c2ccc(C#N)nc2)c1Cl [Compound 1-134] | 5 (Level 5: growth control rate is above 85%) |
| Cn1nnnc1NC(=O)c1ccnc(-c2ccc(Cl)nc2Cl)c1Cl [Compound 1-139] | 5 (Level 5: growth control rate is above 85%) |
| Cn1nnnc1NC(=O)c1ccnc(-c2ccc(Cl)nc2)c1Cl [Compound 1-129] | 5 (Level 5: growth control rate is above 85%) |
| Cc1nc(F)ccc1-c1nccc(C(=O)Nc2nnnn2C)c1Cl [Compound 1-137] | 5 (Level 5: growth control rate is above 85%) |
| Cn1nnnc1NC(=O)c1ccnc(-c2cccc(Cl)c2Cl)c1Cl [Compound 1-87] | 5 (Level 5: growth control rate is above 85%) |
| Cn1nnnc1NC(=O)c1ccnc(C2=CCOCC2)c1Cl [Compound 1-7] | 5 (Level 5: growth control rate is above 85%) |
| Cn1nnnc1NC(=O)c1ccnc(-c2ccc(F)cc2)c1-c1ccc(F)cc1 [Compound 1-223] | 5 (Level 5: growth control rate is above 85%) |
| Cn1nnnc1NC(=O)c1ccnc(-c2ccc3c(c2)oc2ccccc23)c1Cl [Compound 1-117] | 5 (Level 5: growth control rate is above 85%) |
| Cn1nnnc1NC(=O)c1ccnc(-c2ccc(F)cc2C#N)c1Cl [Compound 1-83] | 5 (Level 5: growth control rate is above 85%) |
| Cn1nnnc1NC(=O)c1ccnc(-c2ccc(Cl)cc2F)c1Cl [Compound 1-95] | 5 (Level 5: growth control rate is above 85%) |
| Cn1nnnc1NC(=O)c1ccnc(-c2ccccc2Oc2ccccc2)c1Cl [Compound 1-57] | 5 (Level 5: growth control rate is above 85%) |
| COCc1c(C(=O)Nc2nnnn2C)ccnc1-c1ccc(F)cc1 [Compound 1-214] | 5 (Level 5: growth control rate is above 85%) |
| Cn1nnnc1NC(=O)c1ccnc(-c2cnc(F)nc2)c1Cl [Compound 1-158] | 5 (Level 5: growth control rate is above 85%) |
| CSc1nccc(C(=O)Nc2nnnn2C)c1Cl [Compound 1-2065] | 5 (Level 5: growth control rate is above 85%) |
| Cn1nnnc1NC(=O)c1ccnc(Oc2ccccc2)c1Cl [Compound 1-2063] | 5 (Level 5: growth control rate is above 85%) |

System: Descurainia sophia
Assay: Weeding effect in post-emergence stage
Type: in vivo
Conditions: active ingredient 2000 g/ha, 3 weeks after application, fresh weight control rate
Outline: as §1

| SMILES | Weeding effect, activity level (growth control rate), Descurainia sophia |
| --- | --- |
| Cn1nnnc1NC(=O)c1ccnc(-c2ccc(CNC(=O)OC(C)(C)C)s2)c1Cl [Compound 1-2004] | 5 (Level 5: growth control rate is above 85%) |
| CC(C)c1c(C(=O)Nc2nnnn2C)ccnc1-c1ccc(F)cc1 [Compound 1-197] | 5 (Level 5: growth control rate is above 85%) |
| Cn1nnnc1NC(=O)c1ccnc(-c2ccc[nH]2)c1Cl [Compound 1-2006] | 5 (Level 5: growth control rate is above 85%) |
| C=CC(=O)Nc1cccc(-c2nccc(C(=O)Nc3nnnn3C)c2Cl)c1 [Compound 1-48] | 5 (Level 5: growth control rate is above 85%) |
| Cn1nnnc1NC(=O)c1ccnc(-c2ccc(Br)nc2F)c1Cl [Compound 1-140] | 5 (Level 5: growth control rate is above 85%) |
| Cn1nnnc1NC(=O)c1ccnc(-c2cc(Cl)cc(Cl)c2)c1Cl [Compound 1-89] | 5 (Level 5: growth control rate is above 85%) |
| CC(C)Sc1ccc(-c2nccc(C(=O)Nc3nnnn3C)c2Cl)cc1 [Compound 1-43] | 5 (Level 5: growth control rate is above 85%) |
| Cn1nnnc1NC(=O)c1ccnc(-c2ccc(C#N)nc2)c1Cl [Compound 1-134] | 5 (Level 5: growth control rate is above 85%) |
| Cn1nnnc1NC(=O)c1ccnc(-c2ccc(Cl)nc2Cl)c1Cl [Compound 1-139] | 5 (Level 5: growth control rate is above 85%) |
| Cn1nnnc1NC(=O)c1ccnc(-c2ccc(Cl)nc2)c1Cl [Compound 1-129] | 5 (Level 5: growth control rate is above 85%) |
| Cc1nc(F)ccc1-c1nccc(C(=O)Nc2nnnn2C)c1Cl [Compound 1-137] | 5 (Level 5: growth control rate is above 85%) |
| Cn1nnnc1NC(=O)c1ccnc(-c2cccc(Cl)c2Cl)c1Cl [Compound 1-87] | 5 (Level 5: growth control rate is above 85%) |
| Cn1nnnc1NC(=O)c1ccnc(C2=CCOCC2)c1Cl [Compound 1-7] | 5 (Level 5: growth control rate is above 85%) |
| Cn1nnnc1NC(=O)c1ccnc(-c2ccc(F)cc2)c1-c1ccc(F)cc1 [Compound 1-223] | 5 (Level 5: growth control rate is above 85%) |
| Cn1nnnc1NC(=O)c1ccnc(-c2ccc3c(c2)oc2ccccc23)c1Cl [Compound 1-117] | 5 (Level 5: growth control rate is above 85%) |
| Cn1nnnc1NC(=O)c1ccnc(-c2ccc(F)cc2C#N)c1Cl [Compound 1-83] | 5 (Level 5: growth control rate is above 85%) |
| Cn1nnnc1NC(=O)c1ccnc(-c2ccc(Cl)cc2F)c1Cl [Compound 1-95] | 5 (Level 5: growth control rate is above 85%) |
| Cn1nnnc1NC(=O)c1ccnc(-c2ccccc2Oc2ccccc2)c1Cl [Compound 1-57] | 5 (Level 5: growth control rate is above 85%) |
| COCc1c(C(=O)Nc2nnnn2C)ccnc1-c1ccc(F)cc1 [Compound 1-214] | 5 (Level 5: growth control rate is above 85%) |
| Cn1nnnc1NC(=O)c1ccnc(-c2cnc(F)nc2)c1Cl [Compound 1-158] | 5 (Level 5: growth control rate is above 85%) |
| CSc1nccc(C(=O)Nc2nnnn2C)c1Cl [Compound 1-2065] | 5 (Level 5: growth control rate is above 85%) |
| Cn1nnnc1NC(=O)c1ccnc(Oc2ccccc2)c1Cl [Compound 1-2063] | 5 (Level 5: growth control rate is above 85%) |
